Measurements as given in patent US7022691B2, “Inhibitors of serine and metallo-β-lactamases” (priority 2002, dated 2006).
Counter-ions that a name gives are not always drawn. Like-named read-outs stand apart in the source and are kept apart here.

How the values were obtained:
class B β-lactamases = assay: Inhibition of class B β-lactamases, summary in words; assay type: biochemical; conditions: summary of Table 1 in words
Method: (§1) Representative compounds of the invention were evaluated as inhibitors of two serine β-lactamases: Enterobacter cloacae P99 (class C), TEM-1 (class A), as well as two class B enzymes: the L1 metallo-β-lactamse derived from Stenotrophomonas maltophilia) and the metallo-β-lactamase derived from the Bacillus cereus microorganism. The IC50 value of each compound was determined as follows. Assay method involves 4 min incubation of a solution of inhibitor and enzyme (0.1 to 1 μM in enzyme), followed by transfer of an aliquot into a dilute solution of the substrate nitrocefin. Hydrolysis is monitored spectrophotometrically at 480 nm for 1 min. The rate is constant throughout this period. Error is ±10%, based on multiple experiments.

[1] = molecular target: L1 metallo-β-lactamase (class B) (Stenotrophomonas maltophilia, UniProt P52700); assay: Inhibition of L1 metallo-β-lactamase (nitrocefin hydrolysis); assay type: biochemical
Method: as §1

[2] = molecular target: BC1 metallo-β-lactamase (class B) (Bacillus cereus, UniProt P04190); assay: biochemical
Method: as §1

[3] = molecular target: Enterobacter cloacae P99 (class C) serine β-lactamase (Enterobacter cloacae, UniProt P05364); assay: biochemical
Method: as §1, with “min.” for “min. The rate is constant throughout this period. Error is ±10%, based on multiple experiments.”

[4] = molecular target: TEM-1 (class A) serine β-lactamase (Escherichia coli, UniProt P62593); assay: Inhibition of TEM-1 β-lactamase (nitrocefin hydrolysis); assay type: biochemical; conditions: 4 min incubation of inhibitor and enzyme (0.1 to 1 μM), substrate nitrocefin, 480 nm; error ±10%
Method: as §1, with “min.” for “min. The rate is constant throughout this period. Error is ±10%, based on multiple experiments.”

[5] = test system: serine and metallo-β-lactamases; assay: Inhibition of serine and metallo-β-lactamases, summary in words; assay type: biochemical; conditions: summary of Table 1 in words
Method: as §1, with “min.” for “min. The rate is constant throughout this period. Error is ±10%, based on multiple experiments.”

[6] = 4 min incubation of inhibitor and enzyme (0.1 to 1 μM), substrate nitrocefin, 480 nm, error ±10%, read-out: Inhibition IC50, P99 (Class C) (Serine)
[7] = 4 min incubation of inhibitor and enzyme (0.1 to 1 μM), substrate nitrocefin, 480 nm, error ±10%, read-out: Inhibition IC50, L1 (Class B) (Metallo)
[8] = read-out: Inhibition IC50, BC1 (Class B) (Metallo), 4 min incubation of inhibitor and enzyme (0.1 to 1 μM), substrate nitrocefin, 480 nm, error ±10%
[9] = Inhibition IC50, P99 (Class C) (Serine), 4 min incubation of inhibitor and enzyme (0.1 to 1 μM), substrate nitrocefin, 480 nm, error ±10%

Sequence of L1 metallo-β-lactamase (class B) (P52700 34-290): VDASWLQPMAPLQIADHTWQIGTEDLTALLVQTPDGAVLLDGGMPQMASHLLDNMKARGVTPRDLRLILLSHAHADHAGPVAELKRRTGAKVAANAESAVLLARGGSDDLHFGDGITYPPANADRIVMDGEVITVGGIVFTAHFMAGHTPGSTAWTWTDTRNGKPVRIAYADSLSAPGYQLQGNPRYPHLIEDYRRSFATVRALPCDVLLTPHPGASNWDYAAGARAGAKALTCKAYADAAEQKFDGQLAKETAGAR
Sequence of TEM-1 (class A) serine β-lactamase (P62593 24-286 limits assumed): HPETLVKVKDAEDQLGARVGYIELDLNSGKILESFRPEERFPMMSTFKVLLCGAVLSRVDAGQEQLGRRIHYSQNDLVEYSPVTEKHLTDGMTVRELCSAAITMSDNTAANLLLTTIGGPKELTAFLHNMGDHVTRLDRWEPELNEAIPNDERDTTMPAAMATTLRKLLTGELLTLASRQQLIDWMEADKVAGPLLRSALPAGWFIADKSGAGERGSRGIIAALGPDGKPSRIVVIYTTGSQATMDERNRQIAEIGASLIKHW
Sequence of BC1 metallo-β-lactamase (class B) (P04190 31-257): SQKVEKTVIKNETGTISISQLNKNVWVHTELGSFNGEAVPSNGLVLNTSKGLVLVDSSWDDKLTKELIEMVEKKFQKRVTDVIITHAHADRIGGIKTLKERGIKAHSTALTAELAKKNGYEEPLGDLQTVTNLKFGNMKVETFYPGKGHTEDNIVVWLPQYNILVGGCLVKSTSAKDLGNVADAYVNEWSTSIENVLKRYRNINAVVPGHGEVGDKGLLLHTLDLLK
Sequence of Enterobacter cloacae P99 (class C) serine β-lactamase (P05364 21-381): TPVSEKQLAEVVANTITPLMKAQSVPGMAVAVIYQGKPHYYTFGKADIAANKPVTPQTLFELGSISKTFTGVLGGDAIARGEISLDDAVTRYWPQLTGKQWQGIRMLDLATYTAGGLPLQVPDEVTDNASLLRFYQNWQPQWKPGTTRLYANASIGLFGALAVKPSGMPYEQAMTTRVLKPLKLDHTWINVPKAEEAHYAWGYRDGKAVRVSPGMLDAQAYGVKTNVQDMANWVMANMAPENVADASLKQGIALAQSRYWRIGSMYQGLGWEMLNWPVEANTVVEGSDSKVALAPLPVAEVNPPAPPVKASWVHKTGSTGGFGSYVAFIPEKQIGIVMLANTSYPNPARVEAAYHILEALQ

SMILES | ability to inhibit the class B β-lactamases (class B β-lactamases) | IC50 [1] [µM] | IC50 [2] [µM] | IC50 [3, 6] [µM] | IC50 [1, 7] [µM] | IC50 [2, 8] [µM] | IC50 [4] [µM] | IC50 [3, 9] [µM] | IC50 ([1]; read-out: Inhibition IC50, L1 (Class B) (Metallo), 4 min incubation of inhibitor and enzyme (0.1 to 1 μM), substrate nitrocefin, 480 nm, error ±10%) [µM] | broad spectrum inhibitory activity [5] | IC50 [3] [µM]
CC1(C)[C@H](C(=O)O)N2C(=O)C(CO)C2S1(=O)=O (single isomer, unassigned) [Compound 15, Sodium Salt of 6β-(hydroxymethyl)penicillinate-1,1-dioxide, reference compound] | none of the latter, previously known, 6-(hydroxymethyl)penicillinates possess such ability | > 2000 | > 2000 | 3.9 | – | – | – | – | – | – | –
CC1(C)S[C@@H]2C(CO)C(=O)N2[C@H]1C(=O)O (single isomer, unassigned) [Compound 16, Sodium Salt of 6β-(hydroxymethyl)penicillinate, reference compound] | none of the latter, previously known, 6-(hydroxymethyl)penicillinates possess such ability | – | – | – | > 2000 | > 2000 | 752 | 409 | – | – | –
CC1(C)[C@H](C(=O)O)N2C(=O)C(CO)C2S1(=O)=O (single isomer, unassigned) [Compound 27, Sodium Salt of 6α-(hydroxymethyl)penicillinate-1,1-dioxide, reference compound] | none of the latter, previously known, 6-(hydroxymethyl)penicillinates possess such ability | – | – | 10 | – | > 2000 | – | – | > 2000 | – | –
CC1(C)S[C@@H]2C(CO)C(=O)N2[C@H]1C(=O)O (single isomer, unassigned) [Compound 28, Sodium Salt of 6α-(hydroxymethyl)penicillinate, reference compound] | none of the latter, previously known, 6-(hydroxymethyl)penicillinates possess such ability | > 2000 | > 2000 | – | – | – | 275 | 96.2 | – | – | –
CC1(C)S[C@@H]2C(CS)C(=O)N2[C@H]1C(=O)[O-].[Na+] (stereo partly drawn) [Compound 9, Sodium Salt of 6β-(mercaptomethyl)penicillanic acid] | possess the ability to inhibit the class B β-lactamases | – | 12.3 | 0.1 | 72.2 | – | 601 | – | – | – | –
CC1(C)[C@H](C(=O)[O-])N2C(=O)[C@@H](CS)[C@H]2S1(=O)=O.[Na+] [Compound 13, Sodium Salt of 6β-(mercaptomethyl)penicallin acid 1,1-dioxide] | possess the ability to inhibit the class B β-lactamases | – | 64 | – | 0.13 | – | 6.8 | 10.5 | – | excellent broad spectrum inhibitory activity | –
CC1(C)S[C@@H]2[C@@H](CS)C(=O)N2[C@H]1C(=O)[O-].[Na+] [Compound 21, Sodium Salt of 6α-(mercaptomethyl)penicillinate] | possess the ability to inhibit the class B β-lactamases | – | 7.6 | 3.75 | 81.4 | – | 648 | – | – | – | –
CC1(C)[C@H](C(=O)[O-])N2C(=O)[C@H](CS)[C@H]2S1(=O)=O.[Na+] [Compound 25, Sodium Salt of 6α-(mercaptomethyl)penicallin acid 1,1-dioxide] | possess the ability to inhibit the class B β-lactamases | – | 770 | – | 0.82 | – | 51.7 | – | – | – | 7.5
C[C@]1(Cn2ccnn2)[C@H](C(=O)O)N2C(=O)C[C@H]2S1(=O)=O [Tazobactam] | – | – | > 2000 | – | > 2000 | – | – | – | – | – | –
